Test system: striatal dopamine (DA) release in MI2 mice
Experiment: Dose-response study in MI2 mice: striatal dopamine release by in vivo microdialysis
Design: species or system mouse
Settings: up to 300 mg/kg/day in food
Experimental: An anle138b pharmacodynamics dose-response study was performed using MI2 mice, a novel model of α-synucleinopathy characterized by a progressive PD-like phenotype including accumulation of α-synuclein inclusions in nigrostriatal dopaminergic neurons and impairment of striatal dopamine (DA) release (Wegrzynowicz et al., 2019). The research was carried out in accordance with the Animals (Scientific Procedures) Act 1986 Amendment Regulations 2012 after the review by the University of Cambridge Animal Welfare and Ethical Review Body (AWERB), under the project license 70/8383. Anle138b treatment was commenced at 6 months, an age when impairment of striatal DA release is already observed in MI2 mice, but prior to nigral neuronal loss. […] After 2 months of treatment (at the age of 8 months), striatal release of DA was analysed using in vivo microdialysis, as previously reported (Wegrzynowicz et al., 2019). […] DA levels in the microdialysates were measured by high performance liquid chromatography with electrochemical detection, as described in (Garcia-Reitböck et al., 2010). […] The obtained chromatograms were analysed with Chromeleon Chromatography Data System (V 6·2; Dionex). […]

`Brc1cccc(-c2cc(-c3ccc4c(c3)OCO4)n[nH]2)c1` [anle138b, 3-(1,3-benzodioxol-5-yl)-5-(3-bromophenyl)-1H-pyrazole] was tested, and the “Effect on striatal dopamine release at higher doses” value was “stabile maximal effects were observed”.
